Source: patent publication US10174021B2, “Substituted pyrazolo[1,5-A]pyridines and their use” (BAYER PHARMA AKTIENGESELLSCHAFT, priority 2014, dated 2019)
Structures can show the parent of a compound that is named as a salt.

Test system: recombinant guanylate cyclase reporter cell line
Assay: Effect on a recombinant guanylate cyclase reporter cell line
Assay type: cell-based
Settings: in some cases mean values from individual determinations, read-out: MEC (minimum effective concentration)
Experimental: B-2. Effect on a Recombinant Guanylate Cyclase Reporter Cell Line
The cellular activity of the compounds according to the invention is determined using a recombinant guanylate cyclase reporter cell line, as described in F. Wunder et al., Anal. Biochem. 339, 104-112 (2005).
Representative MEC values (MEC=minimum effective concentration) for the compounds of the invention are shown in the table below (in some cases as mean values from individual determinations): […]

In the case of Cc1cc(OCc2c(F)cccc2F)n2nc(C)c(-c3cn[nH]c3)c2c1 [Example 1, 7-[(2,6-Difluorobenzyl)oxy]-2,5-dimethyl-3-(1H-pyrazol-4-yl)pyrazolo[1,5-a]pyridine], the minimal effective concentration is reported as 0.03 µM.
CC(=O)c1cccc(-c2c(C)nn3c(OCc4c(F)cccc4F)cc(C)cc23)c1 [Example 2, 1-(3-{7-[(2,6-Difluorobenzyl)oxy]-2,5-dimethylpyrazolo[1,5-a]pyridin-3-yl}phenyl)ethanone] was tested, and the minimal effective concentration was 0.53 µM.
CC(=O)Nc1cccc(-c2c(C)nn3c(OCc4c(F)cccc4F)cc(C)cc23)c1 [Example 3, 1-(3-{7-[(2,6-Difluorobenzyl)oxy]-2,5-dimethylpyrazolo[1,5-a]pyridin-3-yl}phenyl)acetamide] gave a minimal effective concentration of 0.065 µM.
Cc1cc(OCc2c(F)cccc2F)n2nc(C)c(-c3csc(CN4CCOCC4)c3)c2c1 [Example 4, 7-[(2,6-Difluorobenzyl)oxy]-2,5-dimethyl-3-[5-(morpholin-4-ylmethyl)-3-thienyl]pyrazolo[1,5-a]pyridine] was tested, and the minimal effective concentration was 0.07 µM.
Cc1cc(OCc2c(F)cccc2F)n2nc(C)c(-c3cnn(CCN4CCOCC4)c3)c2c1 [Example 5, 7-[(2,6-Difluorobenzyl)oxy]-2,5-dimethyl-3-{1-[2-(morpholin-4-yl)ethyl]-1H-pyrazol-4-yl}pyrazolo[1,5-a]pyridine] showed a minimal effective concentration of 0.07 µM.
With Cc1cc(OCc2c(F)cccc2F)n2nc(C)c(-c3cnn(Cc4ccccc4)c3)c2c1 [Example 6, 3-(1-Benzyl-1H-pyrazol-4-yl)-7-[(2,6-difluorobenzyl)oxy]-2,5-dimethylpyrazolo[1,5-a]pyridine] the minimal effective concentration was 0.1 µM.
In the case of CCS(=O)(=O)c1cccc(-c2c(C)nn3c(OCc4c(F)cccc4F)cc(C)cc23)c1 [Example 7, 7-[(2,6-Difluorobenzyl)oxy]-3-[3-(ethylsulphonyl)phenyl]-2,5-dimethylpyrazolo[1,5-a]pyridine], the minimal effective concentration is reported as 0.065 µM.
Work on Cc1cc(OCc2c(F)cccc2F)n2nc(C)c(-c3cnn(-c4ccc(F)cc4)c3)c2c1 [Example 8, 7-[(2,6-Difluorobenzyl)oxy]-3-[1-(4-fluorophenyl)-1H-pyrazol-4-yl]-2,5-dimethylpyrazolo[1,5-a]pyridine] yielded a minimal effective concentration of 1 µM.
Cc1cc(OCc2c(F)cccc2F)n2nc(C)c(-c3cnc(Cl)c(C)c3)c2c1 [Example 9, 3-(6-Chloro-5-methylpyridin-3-yl)-7-[(2,6-difluorobenzyl)oxy]-2,5-dimethylpyrazolo[1,5-a]pyridine] was tested, and the minimal effective concentration was 3 µM.
Compound CCN(C)Cc1cccc(-c2c(C)nn3c(OCc4c(F)cccc4F)cc(C)cc23)c1 [Example 10, N-(3-{7-[(2,6-Difluorobenzyl)oxy]-2,5-dimethylpyrazolo[1,5-a]pyridin-3-yl}benzyl)-N-methylethanamine] has a minimal effective concentration of 0.065 µM.
Cc1cc(OCc2c(F)cccc2F)n2nc(C)c(-c3cccc(CN4CCCC4)c3)c2c1 [Example 11, 7-[(2,6-Difluorobenzyl)oxy]-2,5-dimethyl-3-[3-(pyrrolidin-1-ylmethyl)phenyl]pyrazolo[1,5-a]pyridine] gave a minimal effective concentration of 0.03 µM.
Cc1cc(OCc2c(F)cccc2F)n2nc(C)c(-c3cccc(C(N)=O)c3)c2c1 [Example 12, 3-{7-[(2,6-Difluorobenzyl)oxy]-2,5-dimethylpyrazolo[1,5-a]pyridin-3-yl}benzamide] gave a minimal effective concentration of 0.055 µM.
Cc1cc(OCc2c(F)cccc2F)n2nc(C)c(-c3cccc(NS(C)(=O)=O)c3)c2c1 [Example 13, N-(3-{7-[(2,6-Difluorobenzyl)oxy]-2,5-dimethylpyrazolo[1,5-a]pyridin-3-yl}phenyl)methansulphonamide] showed a minimal effective concentration of 0.1 µM.
Compound Cc1cc(OCc2c(F)cccc2F)n2nc(C)c(-c3cccc(N4CCCC4)c3)c2c1 [Example 14, 7-[(2,6-Difluorobenzyl)oxy]-2,5-dimethyl-3-[3-(pyrrolidin-1-yl)phenyl]pyrazolo[1,5-a]pyridine] has a minimal effective concentration of 2 µM.
For Cc1cc(OCc2c(F)cccc2F)n2nc(C)c(-c3ccnc(N4CCNCC4)c3)c2c1 [Example 15, 7-[(2,6-Difluorobenzyl)oxy]-2,5-dimethyl-3-[2-(piperazin-1-yl)pyridin-4-yl]pyrazolo[1,5-a]pyridine], the minimal effective concentration was 0.3 µM.
Compound Cc1cc(OCc2c(F)cccc2F)n2nc(C)c(-c3cnn(CC(C)(C)N)c3)c2c1 [Example 16, 1-(4-{7-[(2,6-Difluorobenzyl)oxy]-2,5-dimethylpyrazolo[1,5-a]pyridin-3-yl}-1H-pyrazol-1-yl)-2-methylpropane-2-amine] has a minimal effective concentration of 0.1 µM.
With Cc1cc(OCc2c(F)cccc2F)n2nc(C)c(-c3cc(F)ncc3F)c2c1 [Example 17, 7-[(2,6-Difluorobenzyl)oxy]-3-(2,5-difluoropyridin-4-yl)-2,5-dimethylpyrazolo[1,5-a]pyridine] the minimal effective concentration was 2 µM.
For CCOC(=O)c1cncc(-c2c(C)nn3c(OCc4c(F)cccc4F)cc(C)cc23)c1 [Example 18, Ethyl 5-{7-[(2,6-difluorobenzyl)oxy]-2,5-dimethylpyrazolo[1,5-a]pyridin-3-yl}nicotinate], the minimal effective concentration was 10 µM.
With Cc1cn2c(-c3cn[nH]c3)c(C)nc2c(OCc2c(F)cccc2F)n1 [Example 19, 8-[(2,6-Difluorobenzyl)oxy]-2,6-dimethyl-3-(1H-pyrazol-4-yl)imidazo[1,2-a]pyrazine trifluoroacetate] the minimal effective concentration was 0.3 µM.
For Cc1cn2c(-c3nc(N)nc(N)n3)c(C)nc2c(OCc2c(F)cccc2F)n1 [Example 20, 6-{8-[(2,6-Difluorobenzyl)oxy]-2,6-dimethylimidazo[1,2-a]pyrazin-3-yl}-1,3,5-triazine-2,4-diamine trifluoroacetate], the minimal effective concentration was 2 µM.
With COC(=O)CCn1cc(-c2c(C)nn3c(OCc4c(F)cccc4F)cc(C)cc23)cn1 [Example 21, Methyl 3-(4-{7-[(2,6-difluorobenzyl)oxy]-2,5-dimethylpyrazolo[1,5-a]pyridin-3-yl}-1H-pyrazol-1-yl)propanoate trifluoroacetate] the minimal effective concentration was 0.03 µM.
In the case of Cc1cc(OCc2c(F)cccc2F)n2nc(C)c(-c3cnn(CCC(=O)O)c3)c2c1 [Example 22, 3-(4-{7-[(2,6-Difluorobenzyl)oxy]-2,5-dimethylpyrazolo[1,5-a]pyridin-3-yl}-1H-pyrazol-1-yl)propanoic acid trifluoroacetate], the minimal effective concentration is reported as 0.1 µM.
With Cc1cc(OCc2c(F)cccc2F)n2nc(C)c(-c3cnn(CCC(=O)NC4CC4)c3)c2c1 [Example 23, N-Cyclopropyl-3-(4-{7-[(2,6-difluorobenzyl)oxy]-2,5-dimethylpyrazolo[1,5-a]pyridin-3-yl}-1H-pyrazol-1-yl)propanamide] the minimal effective concentration was 0.03 µM.
Cc1cc(OCc2c(F)cccc2F)n2nc(C)c(-c3cnn(CCO)c3)c2c1 [Example 24, 2-(4-{7-[(2,6-Difluorobenzyl)oxy]-2,5-dimethylpyrazolo[1,5-a]pyridin-3-yl}-1H-pyrazol-1-yl)ethanol trifluoroacetate] was tested, and the minimal effective concentration was 0.065 µM.
Cc1cc(OCc2c(F)cccc2F)n2nc(C)c(-c3cnn(CCc4c(C)n[nH]c4C)c3)c2c1 [Example 25, 7-[(2,6-Difluorobenzyl)oxy]-3-{1-[2-(3,5-dimethyl-1H-pyrazol-4-yl)ethyl]-1H-pyrazol-4-yl}-2,5-dimethylpyrazolo[1,5-a]pyridine] gave a minimal effective concentration of 0.065 µM.
